This assay deals with cloned human NR1/NR2B ion channels (Homo sapiens (Human), UniProt Q05586+Q13224). Nature of the assay: HNR2BC: effects of test articles on cloned human NR1/NR2B ion channels expressed in mammalian cells (FLIPR calcium flux). Format: cell-based. The note with it: cloned human NR1/NR2B, Table 5. A digest of the protocol:
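In a stable Tet-On-induced cell line expressing human GluN1/GluN2B, Calcium 5-loaded cells were preincubated 5 min with compound, then stimulated 5 min with glutamate at ~EC80 plus 10 μM glycine, in pH 7.4 HEPES buffer. FLIPR calcium fluorescence was normalized to control wells.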
Chain of cloned human NR1/NR2B ion channels (Q13224 27-1484, other chains not shown): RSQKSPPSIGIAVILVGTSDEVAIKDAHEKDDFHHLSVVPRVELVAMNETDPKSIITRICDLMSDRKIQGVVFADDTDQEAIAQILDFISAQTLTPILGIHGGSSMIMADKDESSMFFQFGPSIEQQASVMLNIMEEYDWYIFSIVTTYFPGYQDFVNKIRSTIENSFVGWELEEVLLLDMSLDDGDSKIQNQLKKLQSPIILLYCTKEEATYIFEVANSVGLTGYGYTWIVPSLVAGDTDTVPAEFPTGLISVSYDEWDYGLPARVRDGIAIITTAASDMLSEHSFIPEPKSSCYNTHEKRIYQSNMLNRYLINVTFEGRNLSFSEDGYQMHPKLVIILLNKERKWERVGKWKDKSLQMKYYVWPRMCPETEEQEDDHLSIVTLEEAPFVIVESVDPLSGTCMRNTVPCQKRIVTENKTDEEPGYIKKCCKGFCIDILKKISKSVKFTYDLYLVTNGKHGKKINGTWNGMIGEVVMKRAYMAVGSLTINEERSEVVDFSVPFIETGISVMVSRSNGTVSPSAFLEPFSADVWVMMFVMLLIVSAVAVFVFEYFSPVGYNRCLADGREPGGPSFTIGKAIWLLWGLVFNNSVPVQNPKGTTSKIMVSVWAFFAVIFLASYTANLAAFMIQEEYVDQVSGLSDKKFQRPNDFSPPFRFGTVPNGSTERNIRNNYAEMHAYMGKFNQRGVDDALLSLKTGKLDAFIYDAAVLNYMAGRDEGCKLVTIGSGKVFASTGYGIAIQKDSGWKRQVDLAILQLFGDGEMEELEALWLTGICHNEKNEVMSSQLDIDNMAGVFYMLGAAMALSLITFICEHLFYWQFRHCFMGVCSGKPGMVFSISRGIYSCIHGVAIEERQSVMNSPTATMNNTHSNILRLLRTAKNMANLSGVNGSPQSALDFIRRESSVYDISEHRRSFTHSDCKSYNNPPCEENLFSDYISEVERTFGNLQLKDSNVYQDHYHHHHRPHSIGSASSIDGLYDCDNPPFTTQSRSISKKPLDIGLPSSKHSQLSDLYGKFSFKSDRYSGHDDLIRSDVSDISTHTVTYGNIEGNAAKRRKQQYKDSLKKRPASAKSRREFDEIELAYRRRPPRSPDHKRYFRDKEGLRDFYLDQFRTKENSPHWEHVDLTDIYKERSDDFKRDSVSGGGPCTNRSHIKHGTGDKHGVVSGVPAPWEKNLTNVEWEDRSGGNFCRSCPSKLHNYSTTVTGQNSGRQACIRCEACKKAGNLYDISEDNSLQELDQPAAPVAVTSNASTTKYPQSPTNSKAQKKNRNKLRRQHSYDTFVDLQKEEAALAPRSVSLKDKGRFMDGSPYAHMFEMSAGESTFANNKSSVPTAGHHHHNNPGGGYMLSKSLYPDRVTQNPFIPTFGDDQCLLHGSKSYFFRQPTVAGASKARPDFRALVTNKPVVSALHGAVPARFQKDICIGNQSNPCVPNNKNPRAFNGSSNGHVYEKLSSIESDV
Take `O=C(Cn1ccc2ncc(-c3cccc(F)c3)cc21)N1CCCC1` [Example 84, 2-[6-(3-Fluorophenyl)pyrrolo[3,2-b]pyridin-1-yl]-1-pyrrolidin-1-yl-ethanone]: the IC50 is 0.0794 µM. The same measure for `O=C(Cn1ccc2ncc(-c3ccccc3)cc21)N1CCOCC1` [Example 85, 1-Morpholino-2-(6-phenylpyrrolo[3,2-b]pyridin-1-yl)ethanone]: 0.0631 µM; for `O=C(Cn1ccc2ncc(-c3ccccc3F)cc21)N1CCOCC1` [Example 86, 2-[6-(2-Fluorophenyl)pyrrolo[3,2-b]pyridin-1-yl]-1-morpholino-ethanone]: 0.501 µM.

Take `O=C(Cn1ccc2ncc(-c3cccc(F)c3)cc21)N1CCOCC1` [Example 87, 2-[6-(3-Fluorophenyl)pyrrolo[3,2-b]pyridin-1-yl]-1-morpholino-ethanone]: the IC50 is 1 µM. Regarding `O=C(Cn1ccc2ncc(-c3ccc(F)cc3)cc21)N1CCOCC1` [Example 88, 2-[6-(4-Fluorophenyl)pyrrolo[3,2-b]pyridin-1-yl]-1-morpholino-ethanone], the IC50 was 0.251 µM. The same measure for `Cc1cccc(-c2cnc3ccn(CC(=O)N4CCOCC4)c3c2)c1` [Example 89, 1-Morpholino-2-[6-(m-tolyl)pyrrolo[3,2-b]pyridin-1-yl]ethanone]: 0.2 µM; for `Cc1ccc(-c2cnc3ccn(CC(=O)N4CCOCC4)c3c2)cc1` [Example 90, 1-Morpholino-2-[6-(p-tolyl)pyrrolo[3,2-b]pyridin-1-yl]ethanone]: 0.0631 µM. The same measure for `CCc1cccc(-c2cnc3ccn(CC(=O)N4CCOCC4)c3c2)c1` [Example 91, 2-[6-(3-ethylphenyl)pyrrolo[3,2-b]pyridin-1-yl]-1-morpholino-ethanone]: 1.58 µM; for `Cc1cc(-c2cnc3c(F)cn(CC(=O)N(C)C)c3c2)ccc1F` [Example 92, 2-[3-Fluoro-6-(4-fluoro-3-methyl-phenyl)pyrrolo[3,2-b]pyridin-1-yl]-N,N-dimethyl-acetamide]: 0.126 µM. Then `CN(C)C(=O)Cn1cc(F)c2ncc(-c3ccc(F)c(F)c3)cc21` [Example 93, 2-[6-(3,4-Difluorophenyl)-3-fluoro-pyrrolo[3,2-b]pyridin-1-yl]-N,N-dimethyl-acetamide], with 0.0398 µM; and `CN(C)C(=O)Cn1cc(F)c2ncc(-c3cc(F)c(F)c(F)c3)cc21` [Example 94, 2-[3-Fluoro-6-(3,4,5-trifluorophenyl)pyrrolo[3,2-b]pyridin-1-yl]-N,N-dimethyl-acetamide], with 0.0631 µM; and `CN(C)C(=O)Cn1cc(F)c2ncc(-c3cccc(C(F)F)c3)cc21` [Example 95, 2-[6-[3-(Difluoromethyl)phenyl]-3-fluoro-pyrrolo[3,2-b]pyridin-1-yl]-N,N-dimethyl-acetamide], with 0.0398 µM. Regarding `Cc1csc(-c2cnc3c(F)cn(CC(=O)N(C)C)c3c2)c1` [Example 96, 2-[3-Fluoro-6-(4-methyl-2-thienyl)pyrrolo[3,2-b]pyridin-1-yl]-N,N-dimethyl-acetamide], the IC50 was 0.0501 µM. With `CN(C)C(=O)Cn1cc(F)c2ncc(-c3ccc(Cl)s3)cc21` [Example 97, 2-[6-(5-Chloro-2-thienyl)-3-fluoro-pyrrolo[3,2-b]pyridin-1-yl]-N,N-dimethyl-acetamide], the IC50 is 0.0631 µM. Then `CN(C)C(=O)Cn1cc(F)c2ncc(-c3ccc(F)cc3)cc21` [Example 98, 2-[3-Fluoro-6-(4-fluorophenyl)pyrrolo[3,2-b]pyridin-1-yl]-N,N-dimethyl-acetamide], with 0.0501 µM; and `O=C(Cn1ccc2ncc(-c3cncc(C(F)(F)F)c3)cc21)NC1CC1` [Example 99, N-Cyclopropyl-2-[6-[5-(trifluoromethyl)-3-pyridyl]pyrrolo[3,2-b]pyridin-1-yl]acetamide], with 0.631 µM; and `O=C(Cn1ccc2ncc(-c3ccc(F)c(F)c3)cc21)NC1CC1` [Example 100, N-Cyclopropyl-2-[6-(3,4-difluorophenyl)pyrrolo[3,2-b]pyridin-1-yl]acetamide], with 1 µM.

(Values after patent publication US10377753B2, “Substituted 4-azaindoles and their use as GluN2B receptor modulators” (Janssen Pharmaceutica NV, priority 2015, dated 2019).)
